Source: patent US8048862B2, “Macrocyclic inhibitors of hepatitis C virus replication” (priority 2008, dated 2011)
Like-named read-outs stand apart in the source and are kept apart here.

What was measured:
[1] = system: hepatitis C replicon; test: hepatitis C replicon EC50; type: cell-based; conditions: Hepatitis C virus
Text: NS3-NS4 inhibition activity can be determined using known assay methods.

[2] = molecular target: NS3/NS4 complexes (Hepatitis C virus genotype 1a, UniProt P27958); test: NS3/NS4 inhibition activity (IC50); type: biochemical; conditions: Table 2, read-out: IC50
Text: NS3-NS4 inhibition activity can be determined using known assay methods. For example, NS3/NS4 complexes may be formed and inhibitory concentrations of test compounds determined as described in U.S. Patent Application Publication Number 2007/0054842 paragraph numbers 1497-1509, which is incorporated herein by reference in its entirety. Similarly, hepatitis C replicon EC50 may be determined using known assay methods such as described in U.S. Patent Application Publication Number 2007/0054842 paragraph numbers 1510-1515. Assays may be conducted at ambient temperature (23° C.) in assay buffer containing 50 mM Tris-HCl, pH 7.5, 15% glycerol, 0.6 mM Lauryldimethylamine Oxide (LDAO), 25 μM NS4A peptide, and 10 mM Dithiothreitol (DTT).

[3] = Table 2, hepatitis C replicon, read-out: EC50

NS3/NS4 complexes, sequence (P27958 1027-1657): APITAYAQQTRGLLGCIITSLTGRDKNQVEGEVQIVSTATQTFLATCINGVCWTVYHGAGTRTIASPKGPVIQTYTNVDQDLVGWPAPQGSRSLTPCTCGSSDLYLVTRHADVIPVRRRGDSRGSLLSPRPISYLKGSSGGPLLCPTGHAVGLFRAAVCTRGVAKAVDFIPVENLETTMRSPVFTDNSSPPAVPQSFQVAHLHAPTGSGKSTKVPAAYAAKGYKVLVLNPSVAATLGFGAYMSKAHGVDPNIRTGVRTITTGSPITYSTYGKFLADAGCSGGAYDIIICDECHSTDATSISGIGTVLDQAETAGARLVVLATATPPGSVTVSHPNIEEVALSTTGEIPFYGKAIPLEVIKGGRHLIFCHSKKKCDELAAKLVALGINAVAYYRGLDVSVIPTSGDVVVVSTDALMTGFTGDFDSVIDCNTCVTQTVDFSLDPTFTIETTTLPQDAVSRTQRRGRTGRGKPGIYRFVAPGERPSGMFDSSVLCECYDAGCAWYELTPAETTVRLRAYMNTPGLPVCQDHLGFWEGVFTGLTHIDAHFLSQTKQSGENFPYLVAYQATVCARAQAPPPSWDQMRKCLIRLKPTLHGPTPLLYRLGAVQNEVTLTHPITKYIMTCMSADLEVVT
NS3/NS4 complexes, sequence (P27958 1658-1711): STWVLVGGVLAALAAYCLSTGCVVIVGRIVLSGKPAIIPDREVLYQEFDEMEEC

| SMILES | EC50 [1, 3] | IC50 [2] | EC50 ([1]; read-out: EC50 nM) |
| --- | --- | --- | --- |
| O=C1N[C@]2(C(=O)O)C[C@H]2/C=C\CCCCC[C@H](Nc2cccc(C(F)(F)F)c2)C(=O)N2C[C@H](Oc3nc4ccccc4s3)C[C@@H]12 [Compound 110] | > 500 nM | 10 to 75 nM | – |
| CC(C)(C)c1csc(N[C@H]2CCCCC/C=C\[C@@H]3C[C@@]3(C(=O)O)NC(=O)[C@@H]3C[C@@H](Oc4nc5ccccc5s4)CN3C2=O)n1 [Compound 119] | > 500 nM | 10 to 75 nM | – |
| O=C1N[C@]2(C(=O)NS(=O)(=O)C3CC3)C[C@H]2/C=C\CCCCC[C@H](Nc2ccccc2)C(=O)N2C[C@H](Oc3nc4ccccc4s3)C[C@@H]12 [Compound 157] | 10 to 75 nM | < 10 nM | – |
| COc1ccc2c(O[C@@H]3C[C@H]4C(=O)N[C@]5(C(=O)NS(=O)(=O)C6CC6)C[C@H]5/C=C\CCCCC[C@H](Nc5ccccc5)C(=O)N4C3)cc(-c3ccccc3)nc2c1 [Compound 164] | < 10 nM | < 10 nM | – |
| O=C1N[C@]2(C(=O)NS(=O)(=O)C3CC3)C[C@H]2/C=C\CCCCC[C@H](NCc2ccccc2)C(=O)N2C[C@H](Oc3nc4ccccc4s3)C[C@@H]12 [Compound 197] | 10 to 75 nM | < 10 nM | – |
| CC1(S(=O)(=O)NC(=O)[C@@]23C[C@H]2/C=C\CCCCC[C@H](Nc2ccccc2)C(=O)N2C[C@H](Oc4nc5ccccc5s4)C[C@H]2C(=O)N3)CC1 [Compound 213] | 10 to 75 nM | < 10 nM | – |
| CC1(S(=O)(=O)NC(=O)[C@@]23C[C@H]2/C=C\CCCCC[C@H](Nc2ccccc2)C(=O)N2C[C@H](Oc4nc5ccc(Br)cc5s4)C[C@H]2C(=O)N3)CC1 [Compound 214] | 75 to 500 nM | < 10 nM | – |
| CC1(S(=O)(=O)NC(=O)[C@@]23C[C@H]2/C=C\CCCCC[C@H](Nc2ccccc2)C(=O)N2C[C@H](Oc4nc5ccc(Cl)cc5s4)C[C@H]2C(=O)N3)CC1 [Compound 217] | 75 to 500 nM | < 10 nM | – |
| Cc1ccc2nc(O[C@@H]3C[C@H]4C(=O)N[C@]5(C(=O)NS(=O)(=O)C6(C)CC6)C[C@H]5/C=C\CCCCC[C@H](Nc5ccccc5)C(=O)N4C3)sc2c1 [Compound 218] | 75 to 500 nM | < 10 nM | – |
| COc1ccc2c(O[C@@H]3C[C@H]4C(=O)N[C@]5(C(=O)NS(=O)(=O)C6(C)CC6)C[C@H]5/C=C\CCCCC[C@H](Nc5ccccc5)C(=O)N4C3)cc(-c3ccccc3)nc2c1 [Compound 220] | < 10 nM | < 10 nM | – |
| CC1(S(=O)(=O)NC(=O)[C@@]23C[C@H]2/C=C\CCCCC[C@H](Nc2ccccc2)C(=O)N2C[C@H](Oc4nccc5ccccc45)C[C@H]2C(=O)N3)CC1 [Compound 221] | 10 to 75 nM | < 10 nM | – |
| CC1(S(=O)(=O)NC(=O)[C@@]23C[C@H]2/C=C\CCCCC[C@H](Nc2cccc(C(F)(F)F)c2)C(=O)N2C[C@H](Oc4nc5ccccc5s4)C[C@H]2C(=O)N3)CC1 [Compound 222] | 75 to 500 nM | < 10 nM | – |
| CC1(S(=O)(=O)NC(=O)[C@@]23C[C@H]2/C=C\CCCCC[C@H](Nc2cccc(C(F)(F)F)c2)C(=O)N2C[C@H](Oc4nc5ccc(Br)cc5s4)C[C@H]2C(=O)N3)CC1 [Compound 223] | 75 to 500 nM | < 10 nM | – |
| CC1(S(=O)(=O)NC(=O)[C@@]23C[C@H]2/C=C\CCCCC[C@H](Nc2cccc(C(F)(F)F)c2)C(=O)N2C[C@H](Oc4nc5ccc(Cl)cc5s4)C[C@H]2C(=O)N3)CC1 [Compound 226] | 75 to 500 nM | < 10 nM | – |
| Cc1ccc2nc(O[C@@H]3C[C@H]4C(=O)N[C@]5(C(=O)NS(=O)(=O)C6(C)CC6)C[C@H]5/C=C\CCCCC[C@H](Nc5cccc(C(F)(F)F)c5)C(=O)N4C3)sc2c1 [Compound 227] | 75 to 500 nM | < 10 nM | – |
| COc1ccc2c(O[C@@H]3C[C@H]4C(=O)N[C@]5(C(=O)NS(=O)(=O)C6(C)CC6)C[C@H]5/C=C\CCCCC[C@H](Nc5cccc(C(F)(F)F)c5)C(=O)N4C3)cc(-c3ccccc3)nc2c1 [Compound 229] | < 10 nM | < 10 nM | – |
| CC1(S(=O)(=O)NC(=O)[C@@]23C[C@H]2/C=C\CCCCC[C@H](Nc2cccc(C(F)(F)F)c2)C(=O)N2C[C@H](Oc4nccc5ccccc45)C[C@H]2C(=O)N3)CC1 [Compound 230] | < 10 nM | < 10 nM | – |
| CC(C)(C)c1csc(N[C@H]2CCCCC/C=C\[C@@H]3C[C@@]3(C(=O)NS(=O)(=O)C3(C)CC3)NC(=O)[C@@H]3C[C@@H](Oc4nc5ccccc5s4)CN3C2=O)n1 [Compound 231] | 10 to 75 nM | < 10 nM | – |
| CC1(S(=O)(=O)NC(=O)[C@@]23C[C@H]2/C=C\CCCCC[C@H](Nc2cccc(F)c2)C(=O)N2C[C@H](Oc4nc5ccccc5s4)C[C@H]2C(=O)N3)CC1 [Compound 235] | 10 to 75 nM | < 10 nM | – |
| COc1ccc2c(O[C@@H]3C[C@H]4C(=O)N[C@]5(C(=O)NS(=O)(=O)C6(C)CC6)C[C@H]5/C=C\CCCCC[C@H](Nc5cccc(F)c5)C(=O)N4C3)cc(-c3ccccc3)nc2c1 [Compound 242] | < 10 nM | < 10 nM | – |
| CC1(S(=O)(=O)NC(=O)[C@@]23C[C@H]2/C=C\CCCCC[C@H](Nc2cccc(F)c2)C(=O)N2C[C@H](Oc4nccc5ccccc45)C[C@H]2C(=O)N3)CC1 [Compound 243] | 10 to 75 nM | < 10 nM | – |
| COc1cccc(N[C@H]2CCCCC/C=C\[C@@H]3C[C@@]3(C(=O)NS(=O)(=O)C3(C)CC3)NC(=O)[C@@H]3C[C@@H](Oc4nc5ccccc5s4)CN3C2=O)c1 [Compound 244] | 10 to 75 nM | < 10 nM | – |
| CC1(S(=O)(=O)NC(=O)[C@@]23C[C@H]2/C=C\CCCCC[C@H](NCc2ccccc2)C(=O)N2C[C@H](Oc4nc5ccccc5s4)C[C@H]2C(=O)N3)CC1 [Compound 253] | 10 to 75 nM | < 10 nM | – |
| O=C1N[C@]2(C(=O)NOc3ccccc3)C[C@H]2/C=C\CCCCC[C@H](NCc2ccccc2)C(=O)N2C[C@H](Oc3nc4ccccc4s3)C[C@@H]12 [Compound 309] | > 500 nM | 75 to 500 nM | – |
| CC(=O)N(Cc1ccccc1)[C@H]1CCCCC/C=C\[C@@H]2C[C@@]2(C(=O)NS(=O)(=O)C2(C)CC2)NC(=O)[C@@H]2C[C@@H](Oc3nc4ccccc4s3)CN2C1=O [Compound 315] | > 500 nM | 10 to 75 nM | – |
| CC(=O)N(Cc1ccccc1)[C@H]1CCCCC/C=C\[C@@H]2C[C@@]2(C(=O)NS(=O)(=O)C2CC2)NC(=O)[C@@H]2C[C@@H](Oc3nc4ccccc4s3)CN2C1=O [Compound 316] | – | 10 to 75 nM | > 500 nM |
| CS(=O)(=O)N(Cc1ccccc1)[C@H]1CCCCC/C=C\[C@@H]2C[C@@]2(C(=O)NS(=O)(=O)C2CC2)NC(=O)[C@@H]2C[C@@H](Oc3nc4ccccc4s3)CN2C1=O [Compound 317] | > 500 nM | 75 to 500 nM | – |
| CCn1c(O[C@@H]2C[C@H]3C(=O)N[C@]4(C(=O)O)C[C@H]4/C=C\CCCCC[C@H](Nc4cc(F)cc(C(F)(F)F)c4)C(=O)N3C2)nc2ccccc21 [Compound 318] | > 500 nM | < 10 nM | – |
| CCn1c(O[C@@H]2C[C@H]3C(=O)N[C@]4(C(=O)NS(=O)(=O)C5(C)CC5)C[C@H]4/C=C\CCCCC[C@H](Nc4cc(F)cc(C(F)(F)F)c4)C(=O)N3C2)nc2ccccc21 [Compound 319] | < 10 nM | < 10 nM | – |
| CC(C)n1c(O[C@@H]2C[C@H]3C(=O)N[C@]4(C(=O)O)C[C@H]4/C=C\CCCCC[C@H](Nc4cc(F)cc(C(F)(F)F)c4)C(=O)N3C2)nc2ccccc21 [Compound 320] | < 10 nM | < 10 nM | – |
